According to the NIST ThermoML archive (doi:10.1021/acs.jced.5b00980):
Numbers after ± are expanded uncertainties.

Columns and labels:
[1] = for mass density: 101.33 kPa, Liquid, Vibrating tube method
[2] = activity coefficient (dimensionless); of the first substance listed, at infinite dilution; xn = mol fraction of the nth substance listed; conditions: 100 kPa, Liquid, Chromatography, x1 = 0

SMILES: CCCC[P+](CC)(CCCC)CCCC.CCOP(=O)([O-])OCC [tributylethylphosphonium diethylphosphate]
- mass density ([1]; 298.15 K): 996.1 ± 10 kg/m3
- mass density ([1]; 303.15 K): 992.58 ± 10 kg/m3
- mass density ([1]; 308.15 K): 989.06 ± 10 kg/m3
- mass density ([1]; 313.15 K): 985.55 ± 10 kg/m3
- mass density ([1]; 318.15 K): 982.04 ± 10 kg/m3
- mass density ([1]; 323.15 K): 978.53 ± 10 kg/m3
- mass density ([1]; 328.15 K): 975.03 ± 10 kg/m3
- mass density ([1]; 333.15 K): 971.53 ± 10 kg/m3
- mass density ([1]; 338.15 K): 968.03 ± 10 kg/m3
- mass density ([1]; 343.15 K): 964.53 ± 10 kg/m3
- mass density ([1]; 348.15 K): 961.01 ± 10 kg/m3
- mass density ([1]; 353.15 K): 957.5 ± 10 kg/m3
- mass density ([1]; 358.15 K): 954 ± 10 kg/m3
- mass density ([1]; 363.15 K): 950.49 ± 10 kg/m3
- mass density ([1]; 368.15 K): 946.98 ± 10 kg/m3
- Glass transition temperature ([1]; Glass, DSC): -71.34 ± 1 °C

SMILES: Cc1ccccc1C [1,2-dimethylbenzene] + CCCC[P+](CC)(CCCC)CCCC.CCOP(=O)([O-])OCC
- activity coefficient ([2]; 328.15 K): 1.55 ± 0.1
- activity coefficient ([2]; 338.15 K): 1.52 ± 0.1
- activity coefficient ([2]; 348.15 K): 1.5 ± 0.1
- activity coefficient ([2]; 358.15 K): 1.47 ± 0.1
- activity coefficient ([2]; 368.15 K): 1.45 ± 0.1

SMILES: C=CCCCC [hex-1-ene] + CCCC[P+](CC)(CCCC)CCCC.CCOP(=O)([O-])OCC
- activity coefficient ([2]; 328.15 K): 2.59 ± 0.18
- activity coefficient ([2]; 338.15 K): 2.54 ± 0.17
- activity coefficient ([2]; 348.15 K): 2.49 ± 0.17
- activity coefficient ([2]; 358.15 K): 2.44 ± 0.17
- activity coefficient ([2]; 368.15 K): 2.4 ± 0.16

SMILES: C#CCCCCCC [1-octyne] + CCCC[P+](CC)(CCCC)CCCC.CCOP(=O)([O-])OCC
- activity coefficient ([2]; 328.15 K): 1.17 ± 0.07
- activity coefficient ([2]; 338.15 K): 1.22 ± 0.08
- activity coefficient ([2]; 348.15 K): 1.28 ± 0.08
- activity coefficient ([2]; 358.15 K): 1.33 ± 0.09
- activity coefficient ([2]; 368.15 K): 1.38 ± 0.09

SMILES: CC(C)=O [acetone] + CCCC[P+](CC)(CCCC)CCCC.CCOP(=O)([O-])OCC
- activity coefficient ([2]; 328.15 K): 0.835 ± 0.054
- activity coefficient ([2]; 338.15 K): 0.827 ± 0.053
- activity coefficient ([2]; 348.15 K): 0.822 ± 0.053
- activity coefficient ([2]; 358.15 K): 0.814 ± 0.053
- activity coefficient ([2]; 368.15 K): 0.809 ± 0.052

SMILES: C1=CCCCC1 [cyclohexene] + CCCC[P+](CC)(CCCC)CCCC.CCOP(=O)([O-])OCC
- activity coefficient ([2]; 328.15 K): 1.72 ± 0.12
- activity coefficient ([2]; 338.15 K): 1.69 ± 0.11
- activity coefficient ([2]; 348.15 K): 1.67 ± 0.11
- activity coefficient ([2]; 358.15 K): 1.65 ± 0.11
- activity coefficient ([2]; 368.15 K): 1.63 ± 0.11

SMILES: C#CCCC [1-pentyne] + CCCC[P+](CC)(CCCC)CCCC.CCOP(=O)([O-])OCC
- activity coefficient ([2]; 328.15 K): 0.725 ± 0.048
- activity coefficient ([2]; 338.15 K): 0.762 ± 0.05
- activity coefficient ([2]; 348.15 K): 0.797 ± 0.052
- activity coefficient ([2]; 358.15 K): 0.833 ± 0.054
- activity coefficient ([2]; 368.15 K): 0.866 ± 0.055

SMILES: C1CCOC1 [tetrahydrofuran] + CCCC[P+](CC)(CCCC)CCCC.CCOP(=O)([O-])OCC
- activity coefficient ([2]; 328.15 K): 0.938 ± 0.059
- activity coefficient ([2]; 338.15 K): 0.926 ± 0.059
- activity coefficient ([2]; 348.15 K): 0.919 ± 0.058
- activity coefficient ([2]; 358.15 K): 0.907 ± 0.058
- activity coefficient ([2]; 368.15 K): 0.899 ± 0.057

SMILES: CCC(C)(C)C [2,2-dimethylbutane] + CCCC[P+](CC)(CCCC)CCCC.CCOP(=O)([O-])OCC
- activity coefficient ([2]; 328.15 K): 3.34 ± 0.23
- activity coefficient ([2]; 338.15 K): 3.27 ± 0.22
- activity coefficient ([2]; 348.15 K): 3.2 ± 0.22
- activity coefficient ([2]; 358.15 K): 3.14 ± 0.21
- activity coefficient ([2]; 368.15 K): 3.08 ± 0.21

SMILES: CCC(=O)CC [pentan-3-one] + CCCC[P+](CC)(CCCC)CCCC.CCOP(=O)([O-])OCC
- activity coefficient ([2]; 328.15 K): 1.02 ± 0.06
- activity coefficient ([2]; 338.15 K): 1.02 ± 0.06
- activity coefficient ([2]; 348.15 K): 1.02 ± 0.06
- activity coefficient ([2]; 358.15 K): 1.02 ± 0.06
- activity coefficient ([2]; 368.15 K): 1.02 ± 0.06

SMILES: C=CCCC [1-pentene] + CCCC[P+](CC)(CCCC)CCCC.CCOP(=O)([O-])OCC
- activity coefficient ([2]; 328.15 K): 2.18 ± 0.15
- activity coefficient ([2]; 338.15 K): 2.15 ± 0.15
- activity coefficient ([2]; 348.15 K): 2.13 ± 0.14
- activity coefficient ([2]; 358.15 K): 2.11 ± 0.14
- activity coefficient ([2]; 368.15 K): 2.09 ± 0.14

SMILES: C1CCCCCC1 [cycloheptane] + CCCC[P+](CC)(CCCC)CCCC.CCOP(=O)([O-])OCC
- activity coefficient ([2]; 328.15 K): 2.48 ± 0.17
- activity coefficient ([2]; 338.15 K): 2.42 ± 0.16
- activity coefficient ([2]; 348.15 K): 2.37 ± 0.16
- activity coefficient ([2]; 358.15 K): 2.32 ± 0.16
- activity coefficient ([2]; 368.15 K): 2.27 ± 0.15

SMILES: C#CCCCCC [1-heptyne] + CCCC[P+](CC)(CCCC)CCCC.CCOP(=O)([O-])OCC
- activity coefficient ([2]; 328.15 K): 1.01 ± 0.06
- activity coefficient ([2]; 338.15 K): 1.05 ± 0.07
- activity coefficient ([2]; 348.15 K): 1.09 ± 0.07
- activity coefficient ([2]; 358.15 K): 1.13 ± 0.07
- activity coefficient ([2]; 368.15 K): 1.17 ± 0.07
